What was measured:
[1] = tested on: NIH-3T3 cells stably expressing RIPK3-1xFv; assay: AP1-induced RIPK3 dimerization cell death, IncuCyte imaging; type: cell-based, murine; conditions: AP1 alone, absence of TNF; depended on AP1 concentration
Text: Fv domains rapidly dimerize in response to AP1 treatment that facilitated an investigation of the protein-protein interactions involved in RIPK3 activation and necroptosis (27a). For example, an Fv domain was appended to a C-terminus of RIPK3, that is adjacent to the RHIM domain, in an effort to mimic in situ RHIM-dependent interactions that define RIPK3 activation. RIPK3-1xFv was expressed in NIH-3T3 cells, a cell line that lacks endogenous RIPK3 expression and is therefore unresponsive to TNF-induced necroptosis. See, FIGS. 13A and 13B. Cell death responses of NIH-3T3 cells were quantified by construct expression over time using the IncuCyte imaging system, which allows precise quantification of cell death with high temporal resolution. For example, representative images were acquired from an IncuCyte Imager (data not shown). These images were NIH-3T3 cells stably expressing RIPK3-1xFV, treated with 10 nM AP1 (see FIG. 1B for a quantified graphical representation of this cell death). One set of images show a field of these cells undergoing RIPK3-dependent cell death; the media contains the cell impermeable DNA binding dye Sytox Green, which marks cells that have lost membrane integrity in green. Another set of images depicts the same image set, following analysis by the IncuCyte software package. This software counts each green (dead) cell in each image; counted cells are surrounded by purple halos. Each trace shown in this manuscript depicts data averaged from at least 3 independently treated wells of cells, each of which is imaged in at least 4 separate fields. Each experiment shown is representative of at least 3 separate replicates. All experiments on stably transduced cells is representative of at least three separate replicates performed on each of at least two distinct, independently-derived stable lines.
In the examples below, the following compounds were used: Recombinant murine TNF (Peprotech 315-01A) was used at 1 ng/ml unless otherwise specified; AP1 (Now commercialized by Clontech as “B/B Homodimerizer,” catalog #635059) was dissolved in ethanol to a concentration of 100 μM, then diluted in culture media to a final concentration of 30 nM unless otherwise indicated. zVAD (SM 13 Biochemicals SMFMK001) was dissolved in DMSO to a concentration of 50 mM, then diluted to 50 μM in culture media; Necrostatin-1(Sigma N9037-10MG) was dissolved in DMSO to a concentration of 30 mM, then diluted to 30 μM in culture media; TNFR-Fc (Fisher 430-RI-050) was used at a final concentration of 200 ng/ml; Shield drug was a kind gift of Dr. Tom Wandless and was used at a final concentration of 1 μM. SiGenome SMARTpool siRNAs were purchased from Dharmacon/Fisher. Pools targeting murine MLKL(M-061420-01), murine RIPK1 (M-040150-01), and murine caspase-8 (M-043044-01), as well as a non-targeting “scramble” pool(D-001206-14), were used. Two microliters of a 50 μM stock of these siRNAs were delivered to cells in 6-well format using Lipofectamine siRNA-Max reagent (Life Technologies 13778150) according to the manufacturer's instructions. Forty-eight hours later, these cells were re-plated into 24-well format for cell death assays, or harvested for western blot analysis of knockdowns.
These constructs were transduced into NIH-3T3 cells using standard protocols for helper-dependent retroviral transduction. Transduced cells were selected for 5 days in 1 μg/ml puromycin, then grown to confluence and sorted twice for homogenous GFP expression. […]

wild type FKBP = wild type FKBP (Homo sapiens, UniProt P62942); conditions: relative to Phe36Val FKBP; cited from earlier work
cells = conditions: cited from earlier work
mice [2] = conditions: delivered intravenously; cited from earlier work
[3] = compared with AP1510; cited from earlier work
[4] = target: FKBPs with a single amino acid substitution, Phe36Val (Fv) (Homo sapiens, UniProt P62942, F37V); conditions: FKBP Phe36Val (Fv); cited from earlier work
[5] = serial dilution in (aqueous) culture medium; cited from earlier work
splenocyte proliferation = conditions: relative to rapamycin; cited from earlier work
mice [6] = conditions: mouse, in vivo; cited from earlier work
RIPK3 complexes = assay: DSS crosslinking of necrosome complexes resolved by western blotting; type: cell-based, murine; conditions: DSS crosslinking, western blot
Protocol: A confluent monolayer of the indicated cells was incubated with the appropriate treatment for 30 minutes at 37 degrees. Cells were lysed in a modified, Tris-free NP40 buffer (30 mM HEPES pH 7.4, 150 mM NaCl, and 1% NP40) without protease inhibitors. Protein lysate was quantified according to standard BCA assay (Pierce) and fifty micrograms of each sample was treated with 0.1 mM DSS crosslinking agent (Thermo Scientific, #21658) for 30 minutes at room temperature; the reaction was quenched by the addition of Tris-HCl pH 7.2 to a final concentration of 50 mM for 15 minutes. Crosslinked samples were analyzed by Western blot as described above, using the anti-2A primary antibody for detection.

[7] = tested on: NIH-3T3 cells stably expressing RIPK3-1xFv; assay: TNF-induced necroptosis, IncuCyte imaging; type: cell-based, murine; conditions: TNF plus caspase inhibitor zVAD
Protocol: Expression of RIPK3-1xFv sensitized these cells to necroptosis induced by the combination of TNF and a caspase inhibitor (zVAD) in a manner analogous to that observed in Jax cells, a murine fibroblast line that expresses endogenous RIPK3. See, FIG. 13C. […]
Resulting images were analyzed using the software package supplied with the IncuCyte imager, which allows precise analysis of the number of Sytox Green or Yoyo-3 positive cells present in each image. For each experiment, a minimum of three separate wells were treated with each experimental condition, and a minimum of 4 image fields were assessed per well. Percent cell death was calculated by treating a minimum of three distinct wells in each experiment with 100 nM of the cell permeable fluorescent dye Syto Green (S7559), which allows quantification of the total number of cells present in each field. […]

[8] = tested on: NIH-3T3 cells expressing RIPK3-2xFv; assay: AP1-induced RIPK3 oligomerization cell death, IncuCyte imaging; type: cell-based, murine; conditions: compared with RIPK3-1xFv
Text: Consequently, two Fv domains were attached to the C-terminus of RIPK3, creating a RIPK3-2xFv construct, with the goal of promoting AP1-induced crosslinking and oligomerization independent of the RHIM domain. See, FIG. 12A. […] Compare, FIGS. 16A and 15A, respectively. […] Cells expressing this RHIM-deficient RIPK3^ΔC-2xFv construct were nonresponsive to TNF+zVAD, previously reported to be dependent on RIPK1 RHIM/RIPK3 RHIM interactions. See, FIG. 13G. […] See, FIG. 16C and FIG. 16D, respectively. […] See, FIG. 16E. […] See, FIG. 16F.
Cell death assays were carried out using a 2-color IncuCyte Zoom in-incubator imaging system (Essen Biosciences.) Briefly, this system allows fully automated imaging of cells at set intervals in phase contrast as well as both red and green fluorescent channels. Cell death assays were carried out by treating cells with death-inducing compounds in 24 well tissue culture vessels (100,000 cells/well), in the presence of 100 nM of the cell-impermeable DNA binding fluorescent dyes Sytox Green (Life Technologies 57020) or Yoyo-3 (Y3606), which are excluded from healthy cells but rapidly enter dying cells upon membrane permeabilization, in a manner analogous to propidium iodide.
Resulting images were analyzed using the software package supplied with the IncuCyte imager, which allows precise analysis of the number of Sytox Green or Yoyo-3 positive cells present in each image. For each experiment, a minimum of three separate wells were treated with each experimental condition, and a minimum of 4 image fields were assessed per well. Percent cell death was calculated by treating a minimum of three distinct wells in each experiment with 100 nM of the cell permeable fluorescent dye Syto Green (S7559), which allows quantification of the total number of cells present in each field. Dead cell events acquired via Sytox Green or Yoyo-3 staining were divided by this total cell number to yield percent cell death at each timepoint. Error bars represent standard deviation from the mean of a minimum of three independent wells. Each result depicted is representative of at least 4 distinct experiments, each of which contained at least 3 technical replicates.

[9] = tested on: RIPK3 necrosome complex (RIPK1, caspase-8); assay: Anti-FLAG immunoprecipitation of necrosome complexes; type: cell-based, murine; conditions: AP1 30 minutes
Protocol: Immunoprecipitation of necrosome complexes were carried out using rabbit anti-FLAG antibodies, and TruBlot IP reagents (Rockland Immunochemicals) to eliminate non-specific signals from immunoglobulin heavy and light chains. Briefly, cell lines were treated as indicated and lysed in NP40 buffer (30 mM Tris, 150 mM NaCl, and 1% NP40) supplemented with protease inhibitors. Twenty micrograms of each sample were reserved for “input,” while 500 μg of total protein from each sample were immunoprecipitated with 0.5 μg antibody conjugated to 30 μL TruBlot anti-Rabbit IgG beads Immunocomplexes were washed 4 times in NP40 buffer, eluted by boiling, then run on western blot. Western blots were analyzed using standard primary antibodies, but TruBlot anti-Rabbit and anti-Mouse HRP-conjugated 14 secondary antibodies were used. A standard anti-Rat-HRP secondary was used to detect caspase-8.

Sequence of FKBPs with a single amino acid substitution, Phe36Val (Fv) (P62942 whole entry F37V): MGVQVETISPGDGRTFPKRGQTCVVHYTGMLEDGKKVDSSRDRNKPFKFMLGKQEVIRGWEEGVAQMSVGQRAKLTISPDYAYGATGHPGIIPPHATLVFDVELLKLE
Sequence of wild type FKBP (P62942 whole entry): as the sequence (P62942 whole entry F37V) above, with V37F counted along it

With `CC[C@H](C(=O)N1CCCC[C@H]1C(=O)O[C@H](CCc1ccc(OC)c(OC)c1)c1cccc(OCC(=O)NCC(CNC(=O)COc2cccc([C@@H](CCc3ccc(OC)c(OC)c3)OC(=O)[C@@H]3CCCCN3C(=O)[C@@H](CC)c3cc(OC)c(OC)c(OC)c3)c2)CN(C)C)c1)c1cc(OC)c(OC)c(OC)c1` [AP1] the “RIPK3 activation and necroptosis upon AP1 addition” value [1] was “limited RIPK3 activation and necroptosis”.

For `CC[C@H](C(=O)N1CCCC[C@H]1C(=O)O[C@H](CCc1ccc(OC)c(OC)c1)c1cccc(OCC(=O)NCC(CNC(=O)COc2cccc([C@@H](CCc3ccc(OC)c(OC)c3)OC(=O)[C@@H]3CCCCN3C(=O)[C@@H](CC)c3cc(OC)c(OC)c(OC)c3)c2)CN(C)C)c1)c1cc(OC)c(OC)c(OC)c1` [AP20187], the “lower affinity to the wild type protein” value (wild type FKBP) is given as 1000 fold, the toxicity to cells (cells) is given as “non-toxic” and the “doses with maximal effects” value (mice [2]) is given as 0.5 to 10 mg/kg. For the same compound, the pharmacokinetic properties [3] was “better pharmacokinetic properties than AP1510” and the affinity [4] was “subnanomolar”.

In the case of AP21967, the “highest concentration ensuring complete solubility” value [5] is given as at most 5 µM, the “non-toxic concentration to cells” value (cells) is given as “up to 1 μM” and the “less immunosuppressive than rapamycin” value (splenocyte proliferation) is given as “greater than 1000 fold”. The “non-toxic dose in mice” value (mice [6]) was “up to 30 mg/kg”.

With “RIPK3-1xFv: murine RIPK3 fused to a single copy of mutated FKBP (F36V), Fv domain, at the C-terminus” the “RIPK3 complexes formed by construct after dimerizer (AP1) treatment” value (RIPK3 complexes) was “present in a combination of dimers and larger oligomeric complexes” and the “sensitization to necroptosis induced by TNF and zVAD by construct expression” value [7] was “sensitized”.

For “RIPK3-2xFv: RIPK3 with two Fv domains attached to the C-terminus”, the “necroptotic response to AP1” value [8] was “faster and more robust necroptotic response”, the “necrosome formation / interaction with RIPK1 and caspase-8 by construct” value [9] was “interaction with RIPK1 and caspase-8, regardless of the presence of zVAD or Nec1” and the “RIPK3 complexes formed by construct after dimerizer (AP1) treatment” value (RIPK3 complexes) was “large molecular weight RIPK3 complexes were observed”.

Source: patent US20160160189A1, “Truncated Constructs of RIPK3 and Related Uses” (ST. JUDE CHILDREN'S RESEARCH HOSPITAL, priority 2013, published 2016)
